According to ChEMBL document CHEMBL3507680, “University of Dundee, Gates Library screen for HepG2 cell viability”:

Experiment: Human HepG2 cell viability assay in 384 well format
Format: toxicity, cell-based
Parameters: dose 125 nL, time 70.5 hour; concentration not given beside the values
Settings: HepG2 cells, read-out: Inhibition

Compound | cytotoxicity at 70.5 h [%]
CCCc1nnc(N2CCC3(CCC(=O)N(C)C3)CC2)o1 | 4.55
CC(C)CN1CCCC1c1ccc(C(=O)Nc2cc[nH]n2)s1 (configuration not stated) | -0.844
Cc1nc(C(C)NC(=O)c2cn(Cc3ccc(Cl)cc3)nn2)n[nH]1 (configuration not stated) | -1.77
CCc1noc(CNCC2CCCN2c2cccnn2)n1 (configuration not stated) | 1.91
Cc1cc(C(=O)NCCc2cn3nc(C)sc3n2)c(C)o1 | -5.61
O=C(Cc1ccccn1)N1CCN(C(=O)c2cccc3[nH]ncc23)CC1 | 1.92
O=C(c1ccnn1-c1ccc2ccccn12)N1CCCC1 | -10.6
Cc1cccc(C)c1OCCNC(=O)NC(C)c1nncn1C (configuration not stated) | 41.6
CC(C)CN(CC(O)c1ccccc1)C(=O)Nc1nccs1 (configuration not stated) | -6.61
Cc1ccc(N2CCCN(C(=O)c3cc(Cl)c[nH]3)CC2)nn1 | -8.66
CCN1CCN(c2ccc(F)cc2C(C)NCc2nc(C)no2)CC1 (configuration not stated) | -0.791
COC(=O)C1CN(Cc2ccccc2C(C)(C)C#N)CCO1 (configuration not stated) | -5.04
CN1C[C@@H](n2cnc(-c3ccccc3)c2-c2nccn2C)C[C@H]1C(=O)O | -11.9
CCS(=O)(=O)NC(CCSC)C(=O)Nc1cc(F)ccc1C (configuration not stated) | -36.1
CCCC(O)CNc1cncc(Br)c1 (configuration not stated) | -5.08
Cc1ccc(CNC2CCCc3c2cnn3Cc2ccccc2)s1 (configuration not stated) | -8.41
CCn1ncc2c1CN(C(=O)c1ccc3c(c1)OCO3)CC2COC (configuration not stated) | -1.24
O=C(N[C@@H]1CN(c2ncccn2)C[C@@H]2CCCO[C@@H]21)c1ccncc1 | -3.78
COC(=O)CNC(=O)C1CCN(S(C)(=O)=O)CC1 | -9.71
Cc1cc(C)n(CC2CN(CC(=O)NC3CCOCC3)CCO2)n1 (configuration not stated) | 15.9
COCC1CN(Cc2ccsc2)Cc2cnn(C)c21 (configuration not stated) | -2.85
CN(Cc1ccco1)[C@@H]1CN(Cc2ccsc2)C[C@@H]2CCCO[C@@H]21 | 2.78
O[C@@H]1C[C@@](CNCc2ccc(Cl)cc2)(COc2cccnc2)C[C@@H]1O | -10.2

Compound | cytotoxicity at 70.5 h [%]
CCOc1ccccc1-c1noc(CN(C)Cc2cnn(C)c2)n1 | 2
CC(=O)N1C[C@@H]2CC[C@H](C1)N(S(=O)(=O)c1ccccc1Cl)C2 | -14.4
CC(CN1CCOCC1)NC1CCN(Cc2cccc(O)c2)CC1 (configuration not stated) | -8.8
Cc1ocnc1C(=O)N1CCCC1c1ccc(C(=O)N2CCSCC2)s1 (configuration not stated) | -7.81
Cc1nc(CCCC(=O)Nc2cccc(N3CCNC3=O)c2)cs1 | 0.608
O=S(=O)(C1CC1)N1CCc2ncnc(N3CCCC3)c2CC1 | -14.9
Cc1nn2c(NC(=O)CSc3nccn3C)csc2nc1=O | 6.49
Cc1ccc(-n2ncc3c2CCCC3N)cc1C (configuration not stated) | -4
CCc1ncc2c(n1)CN(Cc1cnc(C)cn1)CC2 | -72.8
Cc1ccc2c(n1)N(CCN(C)C)CCN(C(=O)c1cscn1)C2 | -7.14
Cc1noc(C)c1C(=O)N1CC[C@H]2C[C@@H](c3nccs3)O[C@@H]2C1 | -13.5
Cc1nc(CNC(C)c2cccc(N3CCCC3=O)c2)cs1 (configuration not stated) | -7.67
Cc1ccc2c(c1)C1(CCN(S(C)(=O)=O)CC1)CN2C(=O)N(C)C | 4.29
CCc1nc2n(n1)CC(NCc1nc(C)ccc1O)CC2 (configuration not stated) | -8.85
c1cc(CN2CCCC(c3ccnc4nccn34)C2)ccn1 (configuration not stated) | -3.33
CCOc1cc(C)nc(N2CCN(C(=O)c3ccncc3)CC2)n1 | 5.92
O=C(Cc1cccnc1)N1CCC2(CC1)CCN(C1CCOCC1)CC2 | -5.53
Cc1ccc(CN(C)C(=O)C(C)n2ccnc2C(C)C)o1 (configuration not stated) | -18.9
CN(C)C(=O)N1CC(C(=O)NCC2CC2)C2(CCOCC2)C1 (configuration not stated) | 3.79
Cc1cc(OCC(=O)NCc2ccc(F)cc2)nnc1C | -6.01
CCOc1ncccc1CNS(=O)(=O)c1ccc2c(c1)CCO2 | -2.87
Nc1nc(C2CCN(C(=O)c3cnco3)CC2)cs1 | -5.18
CN1Cc2nc[nH]c2C[C@H]1C(=O)NC1CCCCC1 | -3.45

Compound | cytotoxicity at 70.5 h [%]
CC(=O)N1CCC2(CC1)C(=O)N(c1cccnc1)c1ccc(F)cc12 | -4.87
O=C(CCc1cc2n(n1)CCCNC2)N1CCN(C2CCCC2)C(=O)C1 | -7.76
O=C(c1ccncc1)N1CC[C@@H]2[C@@H](CC1)OCCN2c1cccnc1 | -7.36
COCCNC(=O)[C@@H]1CN(Cc2sccc2C)C[C@H]2OCC[C@H]21 | -2.35
c1cc(-c2nc(C3CCN(Cc4ccsc4)CC3)no2)ccn1 | 36.8
Clc1cccc(N2CCC(NCc3cc[nH]n3)C2)c1 (configuration not stated) | 3.22
CNC(=O)C1Cn2ccnc2C2(CCN(Cc3cccs3)CC2)O1 (configuration not stated) | 11.6
O=C1CC2(CCN(CC3CCOC3)CC2)c2ccccc2N1CC1CC1 (configuration not stated) | -1.14
Cc1cccc(OC2CN(C(=O)C3CC(=O)N(C(C)(C)C)C3)C2)c1 (configuration not stated) | -2.82
N#Cc1cn(C2CC2)c(=O)n(CC(O)c2ccccc2C(F)(F)F)c1=O (configuration not stated) | -15.2
CC(C)c1nc(C2CCCN2CC(=O)Nc2ccc(Cl)cn2)no1 (configuration not stated) | 19.2
COc1cccc(CC(=O)N2CCc3nc(C(N)=O)sc3CC2)c1 | -8.31
Cc1cccc(C2(C(=O)NCC3CN(C)CCO3)CC2)c1 (configuration not stated) | 2.72
COc1c(CNC2CCc3cc(C)ccc32)c(C)nn1C (configuration not stated) | -1.11
COCCCN(Cc1ccc(F)cc1Cl)C1CCS(=O)(=O)C1 (configuration not stated) | 1.64
Cc1nc(C)n(CC2CCCN2CCOc2ccc(F)cc2)n1 (configuration not stated) | -9.83
CCc1ccccc1-c1cc(C)nc(N)n1 | -7.75
CCn1nnc(NCc2ccccc2OCc2ccc(Cl)cc2)n1 | -7.27
CCNC(=O)[C@@H]1C[C@H](N)CN1C(=O)Cc1cc(C)ccc1C | -12.9
CC(C)NC(=O)[C@H]1C[C@@H]2[C@@H](C1)OCCN2Cc1cnn(C)c1 | -4.89
CCOc1ccccc1C(CC(=O)Nc1ccncc1)NC(C)=O (configuration not stated) | -7.74
CCN(C(=O)CCc1ccc2c(c1)OCO2)C1CC(=O)NC1=O (configuration not stated) | 6.1
Cc1cc(N2CCC(n3cc(CCCO)nn3)CC2)ccn1 | -9.19

Compound | cytotoxicity at 70.5 h [%]
CCc1nnc2n1CCN(CC(=O)Nc1cc(C)on1)C2 | 0.374
CCc1nnc2n1CCN(Cc1csc(Cc3ccccc3)n1)C2 | 15.5
N#Cc1c(CN2CCCCC2Cn2cncn2)cn2ccccc12 (configuration not stated) | 5.14
CN(Cc1ccco1)C(=O)[C@@]12CNC[C@@H]1CN(C1CCCC1)C2 | -23
CC(=O)N1CC[C@@H]2O[C@@H](COCc3csc(C)n3)CC[C@@H]21 | 12
O=C(Nc1ccccc1)N1CC(C(=O)N2CCCC2)C2(CCOCC2)C1 (configuration not stated) | -10.8
O=C(Cc1ccc(F)cc1)N1C[C@H]2CCN[C@H]2C1 | -5
NC(=O)c1cc2c(nc1-c1ccc3c(c1)OCCO3)CCC2 | -9.8
Cc1cc2c(=O)n3c(nc2s1)CCN(C(=O)c1ccncc1)CC3 | -20
c1cnc(NC[C@H]2OC[C@@H]3CCN(Cc4nccs4)C[C@@H]32)nc1 | 21.4
O=C(NC1CCN(c2cc(-n3ccnc3)ncn2)CC1)c1ccncc1 | -10.4
CCn1cc(NC(=O)NCc2ccc3c(c2)OCCO3)cn1 | -13
CC(C)Nc1nc(C(=O)Nc2ccccn2)cs1 | -13.8
CN(CC1CCCCO1)c1nc(-c2cccnc2)nc2c1CCNC2 (configuration not stated) | -17.5
CN(C)C(=O)[C@@H]1C[C@@H]2[C@@H](CCN2Cc2nccs2)O1 | -5.24
CC(C)N(Cc1ccccc1)Cc1csc(-c2ncccn2)n1 | -10.1
c1ncn(Cc2cnc3n2CCN(Cc2ccsc2)CC3)n1 | 1.42
CCNc1ncc(C(=O)N(C)C(C)c2ccc3c(c2)OCCO3)cn1 (configuration not stated) | -2.94
NS(=O)(=O)c1ccc(F)c(C(=O)NCCSc2ccccn2)c1 | -4.06
CC(C)c1nc(C2CCCN2CCS(C)(=O)=O)no1 (configuration not stated) | -12.9
C1CC(CO[C@@H]2CC[C@H]3[C@H]2OCCN3CC2CC2)CCO1 | -82.4
O=C(NCc1cc(N2CCOCC2)ncn1)c1cccc(CO)n1 | 5.15
Cc1cccnc1C(=O)N1C[C@@H]2CC[C@H](Oc3cccc(F)c3)[C@@H]2C1 | -8.25

Compound | cytotoxicity at 70.5 h [%]
Cc1ccc(CN2C[C@@H](c3ccccc3)[C@@]3(CCNC3=O)C2)o1 | 2.86
Cc1nnc(N2C[C@H](C(=O)NCc3ccco3)[C@@H]3CCO[C@@H]3C2)s1 | -1.66
N#Cc1ccc(OCCN2CCNC(=O)C2c2cccs2)cc1 (configuration not stated) | -6.87
COc1ccc(C(C)Nc2ncc(C(N)=O)cc2Cl)cc1F (configuration not stated) | -10.7
Cc1ccc(CN2CCCC3(CCC(=O)N3)CC2)s1 (configuration not stated) | -7.87
Cc1csc2c(N3CCNC(C(=O)NCc4cccnc4)C3)ncnc12 (configuration not stated) | 18.9
Cc1cc(CN2CCN(S(C)(=O)=O)CC(C(=O)N(C)C)C2)no1 (configuration not stated) | 0.351
CN1CCCN(C[C@@H]2CN(C(=O)N3CCOCC3)C[C@@H]2CO)CC1 | -3.11
CCN(CC)CC1CCN(Cc2ncc(C(C)(C)C)o2)CC1 | 1.11
CC(C)c1[nH]c2ncccc2c1CN1CCC(O)CC1 | -3.13
Cc1cc(N2CCOC(C(F)(F)F)C2)nc(-c2ccccc2O)n1 (configuration not stated) | -6.3
CC(C)c1ncc2c(n1)CN(Cc1nc(-c3cccs3)no1)CC2 | -11.9
Cc1ccc2c(n1)N(CC1CC1)CCN(C(=O)c1ccncc1F)C2 | 0.364
O=C(c1scc2c1OCCO2)N1CCN(Cc2cccc(F)c2)CC1 | 20.1
CCc1nc(C2CCCN2Cc2nccn2CC(F)(F)F)no1 (configuration not stated) | 1.64
Cc1cnn(CCC(=O)N2CCN(c3nc(C)cs3)CC2)c1 | 30.3
CCNC(=O)NC(=O)CN1CCOC(c2ccc(Br)cc2)C1 (configuration not stated) | -3.93
COCCSc1ccc(-n2ccnc2)nn1 | 26.4
CC(C)C1CN(c2ncccc2Cl)CCC(=O)N1Cc1ccc(F)cc1 (configuration not stated) | 4.1
COCCN1CCC(c2cncc(-c3ccccc3C)n2)CC1 | -4.28
